From patent US11685741B2, “Fluorescent probes” (University of Massachusetts, priority 2017, dated 2023)

Tests used:
[1] = Effect of pH on fluorescence of sensor and its Fe complex; format: physicochemical; conditions: pH adjusted with HCl/NaOH
[2] = Binding studies of sensor with Fe2+ (stoichiometry, affinity, reversibility); conditions: for binding constant: 1:1 sensor-Fe^2+ complex, H2O/THF pH 7.3 v/v 1:1
Description: The binding stoichiometry between the sensor Rh6GD and Fe^2+ was investigated by absorption and fluorescence titrations first. The sensor, Rh6GD has an absorption band at ˜420 nm (FIG. 26) which is due to the transition from S0 to S1 states (A. Chakraborty, et al., N. Chem. Phys., 2006, 324, 733) of the dimethylaminocinnamaldehyde moiety. […] Similar titrations were performed and were monitored by fluorescence spectroscopy.
The binding constant was estimated by using the absorption titration results. The equations below were used to calculate the binding constant for 2:1 complexes following a reported procedure (M. Guo, et al., Dalton Trans., 2007, 102, 4951). S+2L ? SL2 (1) The complex apparent binding constant is given by
[formula] Fc is the fraction of L that formed a complex; the subscripts e and o stand for equilibrium and initial concentrations, respectively. Au, Am, and Ac are the absorbances of solutions of L (before any Fe^2+ was added), during the titration, and at saturation, respectively. The concentration of free Fe^2+ at equilibrium, [S]e, is found with the following identity: [S]e=[S]o−[SL2]e[=S]o−Fc[L]o (4) Finally, the integrated apparent binding constant equation is shown in equation (5).
Reversibility experiments were carried out by adding the metal chelator EDTA to the Rh6GD-Fe^2+ complex in H2O/THF (pH 7.3, v/v 4:1). […]
Besides metal-selectivity, the binding constant, which describes the strength of binding between the sensor and metal cations, is also an important factor to be considered in bio-imaging. […] Job's method was applied to study the binding stoichiometry between Rh101D and Fe^2+ and monitored by the absorbance at 585 nm.
The binding constants were estimated by using the fluorescence titration results (FIG. 38). […]
The binding stoichiometry and the affinity between the sensor NIRh-Fret and Fe^2+ were investigated by UV-vis absorption titration. […] The binding constant for the formation of this complex was determined to be 2.9×10^6 M^−1 using a reported procedure (C. A. Perez, et al., J. Inorg. Biochem., 2009, 103, 326). […]

Row | pH range over which sensor (and Fe complex) fluorescence is stable / working pH range [1] | binding constant [2] [M⁻¹] | apparent binding constant ([2]; 2:1 sensor-Fe^2+ complex, absorption titration, H2O/THF pH 7.3 v/v 4:1) | pH range over which sensor (and Fe complex) fluorescence is stable / working pH range ([1]; listed as Rh-Pk) | Compound
1 | ≥ 4.5 | 2.9e+06 | – | – | CCN(CC)c1ccc2c(c1)OC1=C(CCC/C1=C\C=C1\N(C)c3ccccc3C1(C)C)C21c2ccccc2C(=O)N1/N=C\C=C\c1ccc(N(C)C)cc1 (centres unmarked) [NIRh-Fret, (E)-6′-(diethylamino)-2-(((1Z,2E)-3-(4-(dimethylamino)phenyl)allylidene)amino)-4′-(2-((E)-1,3,3-trimethylindolin-2-ylidene)ethylidene)-1′,2′,3′,4′-tetrahydrospiro[isoindoline-1,9′-xanthen]-3-one]
2 | 9.5 to 4.5 | 120000 | – | – | CN(C)c1ccc(/C=C/C=N/N2C(=O)c3ccccc3C23c2cc4c5c(c2Oc2c3cc3c6c2CCCN6CCC3)CCCN5CCC4)cc1 [Rh101D]
3 | 9.3 to 4.5 | – | 1.8×10^11 M^−2 | – | CCNc1cc2c(cc1C)C1(c3cc(C)c(NCC)cc3O2)c2ccccc2C(=O)N1/N=C/C=C/c1ccc(N(C)C)cc1 [Rh6GD, 2-(((1E,2E)-3-(4-(dimethylamino)phenyl)allylidene)amino)-3′,6′-bis(ethylamino)-2′,7′-dimethylspiro[isoindoline-1,9′-xanthen]-3-one]
4 | 4 to 9 | – | – | 4-9 | CCN(CC)c1ccc2c(c1)Oc1cc(N(CC)CC)ccc1C21c2ccccc2C(=O)N1CC/N=C(\C)c1cccc(C(C)=O)n1 [Rh-PK, (E)-2-(2-((1-(6-acetylpyridin-2-yl)ethylidene)amino)ethyl)-3′,6′-bis(diethylamino)spiro[isoindoline-1,9′-xanthen]-3-one]
